Twelve compounds from patent publication US20240316038A1, “APOL1 INHIBITORS AND METHODS OF USE” (Maze Therapeutics, Inc., priority 2021, published 2024) can be followed below.

Where only a bound is given, the exact number is not on record here.

The EC50 is the concentration giving half of the maximal effect. Broadly, the AC50 is the concentration giving half of the maximal activity seen.

In test [1] the target is T1, APOL1 G2 (Homo sapiens, UniProt O14791, DEL388-389).
T1 construct: expressed in transfected cells; host or cells: HEK293 T-REx clonal lines: HEK T-REx/GCaMP6f/APOL1 G2 K6.3 in A1, HEK293/T-REx APOL1 G2/clone #2 in A2
T1 sequence (O14791 with tags, fused parts or gaps DEL388-389): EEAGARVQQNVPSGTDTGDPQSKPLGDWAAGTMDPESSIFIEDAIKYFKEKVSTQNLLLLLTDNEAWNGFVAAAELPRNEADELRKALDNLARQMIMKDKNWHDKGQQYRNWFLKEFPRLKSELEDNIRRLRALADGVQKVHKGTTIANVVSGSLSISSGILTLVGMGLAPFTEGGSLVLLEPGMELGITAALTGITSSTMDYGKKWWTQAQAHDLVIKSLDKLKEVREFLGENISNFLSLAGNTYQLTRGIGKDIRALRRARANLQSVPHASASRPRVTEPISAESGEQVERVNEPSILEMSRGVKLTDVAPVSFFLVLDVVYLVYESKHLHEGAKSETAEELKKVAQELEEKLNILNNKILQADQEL
The test is described as follows: Rescue of HEK293 cell death caused by overexpression of APOL1 (CellTiter-Glo luminescence), HEK293/T-REx APOL1 G2/clone #2. It counts as cell-based. Particulars: reversal of cell death caused by overexpression of APOL1; geometric mean of at least 2 assay runs, † = single assay run (technical duplicate). As for the experimental part: A HEK293 clonal cell line overexpressing APOL1 G2 (HEK293/T-REx APOL1 G2/clone #2) was maintained in 1×DMEM-GlutaMax (Gibco, 10569-010) media with 10% tetracycline-free FBS (Takara Bio USA, 631101), 5 μg/mL Blasticidin (Gibco, A1113903), and 100 μg/mL Zeocin (Invitrogen, R25001) in T75 flasks. In preparation for the assay, this media was aspirated and 2 mL of prewarmed TrypLE Express (Gibco, 12605-010) was added to a flask to detach cells. The flask was then incubated (humidified, 37° C. with 5% CO2) for 3-5 minutes. Afterwards, 8 mL of prewarmed cell assay media (lx DMEM-GlutaMax media with 10% tetracycline-free FBS) was added to the trypsinized cells. The suspension was gently mixed, and cells were counted using a Countess Cell Counting Chamber (Invitrogen). The suspension was diluted using cell assay media to generate a working stock solution (166,667 cells/mL). Using a MultiDrop Combi (Thermo Electron Corp), 30 μL (final cell density=5,000 cells/well) of the working stock solution was dispensed into each well of white 384-well assay ready plates (Nunc™, 164610) containing 6 ng/mL doxycycline, to induce APOL1 expression, and compound. All compounds were plated in a duplicate 8-point dilution series that consisted of 3-fold stepwise dilutions (0.5% DMSO final). Assay plates were incubated (humidified, 37° C. with 5% CO2) for 17 hours. After the incubation, the plates were equilibrated at room temperature for 1 hour. Next, 15 μl of CellTiter-Glo® reagent (Promega, G7570) was added to each well using a MultiDrop Combi. Plates were placed on an orbital shaker (500 rpm) for 5 minutes to induce cell lysis and then incubated at room temperature for 10 minutes. Luminescence was measured on an Envision plate reader. Collaborative Drug Discovery software was utilized for graphing data. Plots were generated using a four parameter logistic curve fit.
Table B2 below provides the results from this experiment. Unless otherwise specified, EC50 values are reported as the geometric mean of at least 2 assay runs on separate days. Each run represents the average of a technical replicate, where each compound was assayed twice in the same plate. A superscript t symbol indicates a value from the average of a technical replicate from a single assay run, where each compound was assayed twice in the same plate. Compounds in Table B2 are referred to by the corresponding Compound Number in Table 1, which is also referred to in the synthetic examples. When one or more of the numbered compounds are identified by stereochemistry (for example, (R)- or (S)—), the specific stereoisomer for which data is provided in Table B2 may be identified by the elution order of such compound as described in the synthetic examples. To illustrate, Compound 2 is the first-eluting enantiomer of step 4 of Example 1 and Compound 3 is the second-eluting enantiomer of step 4 of Example 1. Further, by way of illustration, Compound 27 is the first-eluting enantiomeric mixture in step 4 of Example 7 and Compound 28 is the second-eluting enantiomeric mixture in step 4 of Example 7. Then, Compound 27 is separated into Compound 29 (the first-eluting enantiomer) and Compound 30 (the second-eluting enantiomer) in Example 8, and Compound 28 is separated into Compound 31 (the first-eluting enantiomer) and Compound 32 (the second-eluting enantiomer) in Example 8. Absolute stereochemistry of such compounds may be identified by methods known in the art.
Rescue EC50 values reported in Table B2 below represent the half-maximal effective concentration for reversal of cell death caused by overexpression of APOL1.
Background: ATP-based viability assays read luminescence as a measure of living cells.

Test [2] has as its target T1, APOL1 G2. The test is described as follows: APOL1 calcium transport inhibition assay (GCaMP6f calcium influx, FLIPR) in HEK T-REx/GCaMP6f/APOL1 G2 K6.3 cells. It counts as cell-based. Particulars: inhibition of APOL1-mediated calcium influx; geometric mean of at least 2 assay runs, † = single assay run (technical duplicate). How it is done: A HEK293 clonal cell line was generated to stably express GCaMP6f, a genetically encoded calcium indicator, and inducibly express APOL1 G2 (HEK T-REx/GCaMP6f/APOL1 G2 K6.3). Cells were maintained in the following standard complete medium: DMEM with 4.5 g/L glucose and sodium pyruvate (BioWhittaker, Lonza, BE12-614F), supplemented with 10% FBS Performance Plus (Gibco, 16000044), 1% penicillin-streptomycin (BioWhittaker, DE17-602E), 2 mM ultraglutamine-1 (BioWhittaker cat. BE 17-605/U1), 50 μg/mL Zeocin (InvivoGen, ant-zn), 2.5 μg/mL Blasticidin (InvivoGen, ant-bl-5), and 25 μg/mL Hygromycin (InvivoGen, ant-hg). Standard propagation conditions consisted of plating 9×10^6, 4×10^6, 2×10^6 cells in a T225 flasks to be processed after 2, 3, or 4 days, respectively.
A source plate was generated containing 20 serially diluted compounds in DMSO (duplicate 8-point dose response). Next, 0.8 μL of compounds were transferred from the source plate to a destination plate prefilled with 79.2 μL of Ca^2+ free Tyrode's buffer (130 mM NaCl, 5 mM KCl, 1 mM MgCl2, 5 mM NaHCO3, 20 mM HEPES at pH 7.4). The destination plate was placed on a plate shaker (5 seconds at 2000 rpm) to mix. […] All transfer and mixing steps were conducted with an CyBi®-Well dispenser.
Cells were split by gently washing with DPBS (Euroclone, ECB4004L), followed by a 5-minute incubation (humidified, 37° C. with 5% CO2) with trypsin-EDTA solution (Euroclone, ECB3052D). Detached cells were diluted with standard complete medium without selective agents, counted, and plated in a 384 MTP microplate (GR4332CPL, Twin Helix) (10,000 cells/well in 25 μl/well) using a MATRIX WellMate dispenser. Plates were placed into a humidified incubator (37° C. with 5% CO2) overnight. The following day, 20 μL of doxycycline (Sigma, D9891) at 20 ng/mL in standard complete medium was added to cells with a CyBi @Drop dispenser to induce APOL1 G2 expression. After a 6-hour incubation (humidified, 37° C. with 5% CO2), cells were washed 3 times with Ca^2+ free Tyrode's Buffer (130 mM NaCl, 5 mM KCl, 1 mM MgCl2, 5 mM NaHCO3, 20 mM HEPES at pH 7.4) using a BIOTEK Microplate washer, such that 10 μL of buffer remained in each well after the final wash. Assay plates were then stored at room temperature for 10 minutes. Next, 10 μL of diluted compounds were transferred to the assay plate from the 2× compound plate using a CyBi®-Well dispenser. Compound incubation was then carried out at room temperature for 10 minutes. The assay plate was transferred to the […] and 20 μL of 10 mM Ca^2+ (final concentration=5 mM) Tyrode's buffer was injected.
Table B1 below summarizes the data from this experiment. Unless otherwise specified, AC50 and values are reported as the geometric mean of at least 2 assay runs on separate days. Each run represents the average of a technical replicate, where each compound was assayed twice in the same plate. A superscript † symbol indicates a value from the average of a technical replicate from a single assay run, where each compound was assayed twice in the same plate.
The AC50 values in Table B1 below reflect the compound's ability to prevent calcium influx by inhibiting APOL1. […] Compounds in Table B1 are referred to by the corresponding Compound Number in Table 1, which is also referred to in the synthetic examples. When one or more of the numbered compounds are identified by stereochemistry (for example, (R)- or (S)—), the specific stereoisomer for which data is provided in Table B1 may be identified by the elution order of such compound as described in the synthetic examples. To illustrate, Compound 2 is the first-eluting enantiomer of step 4 of Example 1 and Compound 3 is the second-eluting enantiomer of step 4 of Example 1. Further, by way of illustration, Compound 27 is the first-eluting enantiomeric mixture in step 4 of Example 7 and Compound 28 is the second-eluting enantiomeric mixture in step 4 of Example 7. […]

Regarding `CS(=O)(=O)c1ccc(OCC2CN(CCc3cccc(Cl)c3)CCC2O)cc1` (racemic) [Compound 27, rac-trans or cis-1-(3-chlorophenethyl)-3-((4-(methylsulfonyl)phenoxy)methyl)piperidin-4-ol], the EC50 at APOL1 G2 [1] came out at 2130 nM. Besides, on APOL1 G2 [2], the concentration at half-maximal activity (AC50) came out at 1500 nM.

In the case of `CS(=O)(=O)c1ccc(OCC2CN(CCc3cccc(Cl)c3)CCC2O)cc1` (racemic) [Compound 28, rac-cis or trans-1-(3-chlorophenethyl)-3-((4-(methylsulfonyl)phenoxy)methyl)piperidin-4-ol], the EC50 at APOL1 G2 [1] amounted to 2340 nM. Also, on APOL1 G2 [2], the AC50 came to 2000 nM.

Turning to `C[C@H]1CN(CCc2cccc(Cl)c2)C[C@@H]1COc1ccc(N(C)S(C)(=O)=O)cc1` (racemic) [Compound 45, rac-trans-N-(4-((1-(3-chlorophenethyl)-4-methylpyrrolidin-3-yl)methoxy)phenyl)-N-methylmethanesulfonamide], at APOL1 G2 [1], the EC50 is under 13.7 nM. In addition, the AC50 at APOL1 G2 [2] was 71.2 nM.

Regarding `C[C@@H]1CN(CCc2cccc(Cl)c2)C[C@H]1COc1ccc(S(C)(=O)=O)cc1` (racemic) [Compound 52, rac-trans-1-(3-chlorophenethyl)-3-methyl-4-((4-(methylsulfonyl)phenoxy)methyl)pyrrolidine], the EC50 on APOL1 G2 [1] turned out to be 124 nM. Besides, at APOL1 G2 [2], the AC50 worked out at 79 nM.

Regarding `COCCS(=O)(=O)c1ccc(OC[C@H]2CN(CCc3cccc(Cl)c3)C[C@@H]2C)cc1` (racemic) [Compound 109, rac-trans-1-[2-(3-chlorophenyl)ethyl]-3-{[4-(2-methoxyethane-sulfonyl)phenoxy]methyl}-4-methylpyrrolidine], at APOL1 G2 [1], the EC50 was determined as 500 nM. The half-maximal activity concentration (AC50) on APOL1 G2 [2] is under 105 nM.

As to `C[C@@H]1CN(CCc2cccc(Cl)c2)C[C@@H]1COc1ccc(S(C)(=O)=O)cc1` (racemic) [Compound 150, rac-cis-1-[2-(3-chlorophenyl)-ethyl]-3-[(4-methanesulfon-ylphenoxy)meth-yl]-4-methyl-pyrrolidine], the EC50 on APOL1 G2 [1] was 1470 nM. At APOL1 G2 [2], the AC50 was 721 nM.

As to `C[C@H]1CN(CCc2cccc(Cl)c2)C[C@@H]1COc1ccc(S(=O)(=O)CCCS(C)(=O)=O)cc1` (racemic) [Compound 175, rac-trans-1-[2-(3-chlorophenyl)eth-yl]-3-{[4-(3-methanesulfonylpro-panesulfonyl)phe-noxy]methyl}-4-methylpyrrolidine], the EC50 on APOL1 G2 [1] was 143 nM. At APOL1 G2 [2], the AC50 is under 72.8 nM.

With `C[C@@]1(O)CN(CCc2cccc(Cl)c2)C[C@H]1COc1ccc(S(C)(=O)=O)cc1` (racemic) [Compound 205], the EC50 at APOL1 G2 [1] was found to be 1590 nM. Also, the AC50 on APOL1 G2 [2] is under 236 nM.

Regarding `CC1(O)CN(CCc2cccc(Cl)c2)CC1COc1ccc(S(C)(=O)=O)cc1` (racemic) [Compound 208, rac-trans-1-[2-(3-chlorophenyl)ethyl]-4-[(4-methanesulfonylphenoxy)methyl]-3-methylpyrrolidin-3-ol], the EC50 on APOL1 G2 [1] stood at 3570 nM. Also, the AC50 on APOL1 G2 [2] is under 420 nM.

As for `CS(=O)(=O)c1ccc(OCC2CCCCN(CCc3cccc(Cl)c3)C2)cc1` (single isomer, unassigned) [Compound 2, (R) or (S)-1-(3-chlorophenethyl)-3-((4-(methylsulfonyl)phenoxy)methyl)azepane], at APOL1 G2 [1], the EC50 is 2960 nM. Moreover, the AC50 at APOL1 G2 [2] is 1010 nM.

For the compound `CS(=O)(=O)c1ccc(OCC2CCCCN(CCc3cccc(Cl)c3)C2)cc1` (single isomer, unassigned) [Compound 3, (S) or (R)-1-(3-chlorophenethyl)-3-((4-(methylsulfonyl)phenoxy)methyl)azepane], the concentration for a half-maximal effect (EC50) at APOL1 G2 [1] came out at 295 nM. Moreover, at APOL1 G2 [2], the AC50 is 205 nM.

For `CS(=O)(=O)c1ccc(OCC2(O)CCCN(CCc3cccc(Cl)c3)C2)cc1` (single isomer, unassigned) [Compound 5, (R) or (S)-1-(3-chlorophenethyl)-3-((4-(methylsulfonyl)phenoxy)methyl) piperidin-3-ol], the EC50 at APOL1 G2 [1] is 5370 nM. On APOL1 G2 [2], the AC50 stood at 10100 nM.
